Experimental findings from publication PMC6522510 (Nature Communications, 2019) are described below.

For data set [1], the system named is MOLM-13. Nature of the data set: Secondary dose-response HTS, Cell Titer Glo. It counts as cell-based, human. As to conditions: Homo sapiens, MOLM-13. Background: ATP-based viability assays read luminescence as a measure of living cells.
The next data set deals with AML cell lines. Description: Nuclear accumulation of [3H]-labelled drug. In kind it is cell-based, human. The note with it: 2 h, 1 µM.
A further data set concerns ML-2. In kind it is cell-based. As to conditions: Homo sapiens, 72 h, Cell Titer Glo.
Data set [2] relates to CMK. Nature of the data set: cells. The note with it: Homo sapiens, CMK, 72 h, read-out: CMK. Also on record: species or system AML cell lines (8); Secondary HTS, 10-point dose-response in triplicate, Cell Titer Glo viability, four-parameter fit EC50.
Data set [3] deals with Mll PTD/wt:Flt3 ITD/ITD double knock-in primary transplant blasts (bone marrow, spleen). Description: Accumulation in primary murine blasts. It counts as cell-based, mouse. The note with it: blasts from bone marrow or spleen. As for the experimental part:
Cells were washed twice with ice-cold PBS; cell pellets were solubilized in 400 µL 1 N NaOH and agitated (300 rpm) at room temperature for 2 h. Then samples were neutralized with […] 1 M HCl; a 25 µL aliquot of lysate was used to estimate protein concentration using a Pierce BCA protein assay kit (Thermo Scientific). Total radioactivity was measured by a Tri-Carb 4810TR liquid scintillation counter (Perkin-Elmer) after mixing the sample with 4 mL of Emulsifier Safe (Perkin Elmer); the results were normalized to total protein content as measured by a Pierce BCA protein assay kit. Three independent experiments were performed in triplicate.
Bone marrow and splenocytes were isolated from mice transplanted with dKI AML and CG-V617 AMKL. Following red blood cells lysis, dKI AML leukemic blasts from vehicle treated mice were evaluated for accumulation of cytarabine and gemcitabine using the uptake assay described above.
Supplementary Figure 5. Accumulation of cytarabine and gemcitabine .
unlabeled and [3H]-cytarabine (Ara- C) or gemcitabine ( Gem ). Intracellular Ara- C, Gem ,
scintillation counting and normalized to protein levels. Representative chromatogram for
as disintegrations per minute (DPM) over complete run time. (c) Percentage of total
independent experiments (N=9). (d) Accumulation was determined in cell lysate of bone
double knock-in primary transplant recipient. […]

The subject of data set [4] is CMK. Nature of the data set: Secondary dose-response HTS, Cell Titer Glo. It counts as cell-based, human. As to conditions: Homo sapiens, CMK; secondary HTS, 72 h, average of triplicate; read-out: EC50 CMK.
Data set [5] has as its system Mll-PTD/wt:Flt3ITD/ITD secondary transplants. Description: In vivo efficacy, survival. Also on record: species or system mice. As to conditions: for Median survival: i.p.
The subject of data set [6] is MV4-11. In kind it is cell-based. The note with it: Homo sapiens, 72 h, Cell Titer Glo.
A further data set deals with CMS. It counts as cell-based. As to conditions: Homo sapiens; 72 h, Cell Titer Glo; read-out: IC50 CMS.
Data set [7] deals with MOLM-13. It counts as cell-based. The note with it: Homo sapiens, 72 h, Cell Titer Glo.
The subject of data set [8] is MV4-11. Description: cells. Also on record: species or system AML cell lines (8); Secondary HTS, 10-point dose-response in triplicate, Cell Titer Glo viability, four-parameter fit EC50. The note with it: Homo sapiens, MV4-11, 72 h, read-out: MV4-11.

Like-named read-outs stand apart in the source and are kept apart here.

With `Nc1ccn([C@@H]2O[C@H](CO)[C@@H](O)C2(F)F)c(=O)n1` [Gemcitabine, gemcitabine], the EC50 with MOLM-13 [1] (secondary HTS, 72 h, average of triplicate, read-out: EC50 MOLM-13) stood at 3 nM; with MOLM-13 [1] (secondary high-throughput screen, read-out: average effective concentration, MOLM-13), 2.73 nM; in the data set on CMK [2] it was 8.4 nM; with CMK [4], 10 nM; with MV4-11 [8] it was 2.1 nM. For the same compound, in the data set on AML cell lines, the “nuclear accumulation, gemcitabine compared to cytarabine” value is reported as 5–19.8 fold. Besides, the IC50 in the data set with ML-2 was 0.6 nM; with MV4-11 [6], 3.2 nM; in the data set with CMS, 1 nM; in the data set on MOLM-13 [7] it was 0.7 nM. Moreover, the “accumulation of total gemcitabine versus cytarabine” value in [3] is given as 6.0–6.7 fold. Further, the Median survival in data set [5] (3 mg kg−1 daily x 5 days) is given as 49 days; in data set [5] (120 mg kg−1 q3d (only 4 doses received)), 52 days. Further, in [5] (120 mg kg−1 q3d), the “tolerability of the intermittent MTD” value is recorded as “not well tolerated”.

A word on the IC50: it is the concentration that gives 50% inhibition.
